Measurements from patent US20060089395A1, “Nf-kb activation inhibitors” (priority 2002, published 2006).
Where two headings read alike, the source gives them in different places.

Test system: NF-κ B
Test: Inhibitory activity of NF-κ B activation, luciferase reporter assay in HepG2 under TNF-α stimulation
Type: cell-based, human
Settings: for inhibition at 0.1 µg/mL / inhibition at 1 µg/mL / inhibition at 10 µg/mL: Homo sapiens; for inhibition at 0.1 µg/mL: 0.1 μg/ml, read-out: Inhibitory Ratio of NF-κB Activation (%) 0.1 μg/ml
Method in brief: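 Readout is firefly luciferase luminescence, expressed as inhibition versus compound-free wells. Before this, HepG2 cells carrying a transiently transfected 5×NF-κB-site luciferase plasmid (6–24 h post-transfection) received test compound plus TNF-α (40 ng/ml) for 4 h.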

[1] = HepG2, 4 h, comparison table, reporter assay
[2] = HepG2, 4 h, 1 μg/ml, comparison table, reporter assay, read-out: Inhibitory Ratio of NF-κB Activation (%) 1 μg/ml
[3] = HepG2, 4 h, 10 μg/ml, comparison table, reporter assay, read-out: Inhibitory Ratio of NF-κB Activation (%) 10 μg/ml
[4] = 1 μg/mL, HepG2, TNF-α (40 ng/ml), 4 hours, read-out: Inhibitory Ratio of NF-κ B Activation(%) Drug Concentration 1 μg/mL
[5] = 10 μg/mL, HepG2, TNF-α (40 ng/ml), 4 hours, read-out: Inhibitory Ratio of NF-κ B Activation(%) Drug Concentration 10 μg/mL
[6] = 10 μg/mL, HepG2, TNF-α (40 ng/ml), 4 hours
[7] = 1 μg/mL, HepG2, TNF-α (40 ng/ml), 4 hours

Compound	Inhibitory Ratio of NF-κ B Activation(%) Drug Concentration 10 μg/mL [6]	Inhibitory Ratio of NF-κ B Activation(%) Drug Concentration 1 μg/mL [7]	also measured
O=C(Nc1cc(C(F)(F)F)ccc1C(F)(F)F)c1cc(Cl)ccc1O [Compound No.81, N-[2,5-bis(trifluoromethyl)phenyl]-5-chloro-2-hydroxybenzamide]	–	–	inhibition at 0.1 µg/mL [1]: 27%; inhibition at 1 µg/mL [2]: 95%; inhibition at 10 µg/mL [3]: 96.3%; inhibition at 1 µg/mL [4]: 95%; inhibition at 10 µg/mL [5]: 96.3%
CCCCc1nc(NC(=O)c2cc(Br)ccc2O)sc1-c1ccccc1 [Compound No. 198, 5-Bromo-N-(4-butyl-5-phenylthiazol-2-yl)-2-hydroxybenzamide]	–	–	inhibition at 1 µg/mL [4]: 46.1%; inhibition at 10 µg/mL [5]: 88.7%
O=C(Nc1ccc(O)c(C(=O)Nc2cc(C(F)(F)F)cc(C(F)(F)F)c2)c1)c1ccccc1 [Compound No. 45]	63.4%	–	–
O=C(Nc1cc(Cl)cc(Cl)c1)c1ccc(Cl)cc1O [Compound No. 129]	71.8%	–	–
Cc1sc(NC(=O)c2cc(Br)ccc2O)nc1-c1ccccc1 [Compound No. 192]	94.4%	83.6%	–
Cc1nc(NC(=O)c2cc(Br)ccc2O)sc1-c1ccc(F)cc1 [Compound No. 193, 5-Bromo-N-[4-methyl-5-(4-fluorophenyl)thiazol-2-yl]-2-hydroxybenzamide]	–	–	inhibition at 10 µg/mL [5]: 82%
O=C(Nc1cnc2ccccc2c1)c1cc(Cl)ccc1O [Compound No. 242]	85.7%	–	–
CC(=O)Oc1ccc(Cl)cc1C(=O)Nc1cc(C(F)(F)F)ccc1Cl [Compound No. 89]	97.4%	96.7%	–
O=C(Nc1cc(C(F)(F)F)ccc1N1CCC(C(F)(F)F)CC1)c1cc(Cl)ccc1O [Compound No. 112]	95.7%	96.5%	–
CCOC(=O)c1sc(NC(=O)c2cc(-c3ccc(F)cc3)ccc2O)nc1-c1ccccc1 [Compound No. 226]	85.8%	45.0%	–
C[Si](C)(C)C#Cc1ccc(O)c(C(=O)Nc2cc(C(F)(F)F)cc(C(F)(F)F)c2)c1 [Compound No. 20, N-[3,5-bis(trifluoromethyl)phenyl]-2-hydroxy-5-[(trimethylsilyl)ethynyl]benzamide]	–	–	inhibition at 1 µg/mL [4]: 91.1%; inhibition at 10 µg/mL [5]: 94.9%
O=C(Nc1cc(C(F)(F)F)cc(C(F)(F)F)c1)c1cc(Br)cc(-c2ccccc2)c1O [Compound No. 259]	–	>99.9%	–
COc1ccc(-n2cccc2)c(NC(=O)c2cc(Cl)ccc2O)c1 [Compound No. 167]	98.7%	76.4%	–
O=C(Nc1ccccc1)c1ccc(Cl)c(NC(=O)c2cc(Cl)ccc2O)c1 [Compound No. 157]	98.8%	52.6%	–
CCNC(=O)c1sc(NC(=O)c2cc(Br)ccc2O)nc1-c1ccccc1 [Compound No. 221]	84.0%	51.9%	–
O=C(Nc1cc([N+](=O)[O-])cc([N+](=O)[O-])c1)c1cc(Br)ccc1O [Compound No. 133]	95.6%	91.0%	–
Cc1cnc(NC(=O)c2cc(Br)ccc2O)s1 [Compound No. 190]	69.7%	–	–
O=C(Nc1ccc(Cl)c(Cl)c1)c1cc(Br)ccc1O [drawing 558, reference compound]	–	–	inhibition at 0.1 µg/mL [1]: 6.8%; inhibition at 1 µg/mL [2]: 88.7%; inhibition at 10 µg/mL [3]: 92.7%
O=C(Nc1cc(C(F)(F)F)ccc1N1CCCCC1)c1cc(Cl)ccc1O [Compound No. 116]	97.3%	90.0%	–
COc1ccc(C(=O)Nc2cc(C(F)(F)F)cc(C(F)(F)F)c2)c(O)c1 [Compound No. 65]	89.8%	83.3%	–
O=C(Nc1cc(C(F)(F)F)ccc1N1CCOCC1)c1cc(Br)ccc1O [Compound No. 98]	86.4%	81.8%	–
CCOC(=O)c1sc(NC(=O)c2cc(Br)ccc2O)nc1-c1c(F)c(F)c(F)c(F)c1F [Compound No. 219, Ethyl 2-(5-bromo-2-hydroxybenzoyl)amino-4-(pentafluorophenyl)thiazole-5-carboxylate]	–	–	inhibition at 1 µg/mL [4]: 82.2%; inhibition at 10 µg/mL [5]: 96%
COc1ccc(OC)c(NC(=O)c2cc(Cl)ccc2O)c1 [Compound No. 158]	96.8%	52.4%	–

Compound	Inhibitory Ratio of NF-κ B Activation(%) Drug Concentration 10 μg/mL [6]	Inhibitory Ratio of NF-κ B Activation(%) Drug Concentration 1 μg/mL [7]	also measured
Cc1ccc(-c2ccccc2)cc1NC(=O)c1cc(Cl)ccc1O [Compound No. 172]	96.4%	93.7%	–
O=C(Nc1nc(-c2ccccc2)c(-c2ccccc2)s1)c1cc(Br)ccc1O [Compound No. 211]	67.0%	–	–
CC(C)c1cccc(C(=O)Nc2cc(C(F)(F)F)cc(C(F)(F)F)c2)c1O [Compound No. 256, N-[3,5-bis(trifluoromethyl)phenyl]-2-hydroxy-3-isopropylbenzamide]	–	–	inhibition at 1 µg/mL [4]: 92.1%
CCC(C)(C)c1ccc(O)c(NC(=O)c2cc(Cl)ccc2O)c1 [Compound No. 177]	99.4%	87.8%	–
O=C(Nc1cc(Cl)ccc1Cl)c1cc(Cl)ccc1O [Compound No. 122]	96.9%	95.1%	–
N#Cc1ccc(O)c(C(=O)Nc2cc(C(F)(F)F)cc(C(F)(F)F)c2)c1 [compound 9, N-[3,5-Bis(trifluoromethyl)phenyl]-5-cyano-2-hydroxybenzamide]	–	–	inhibition at 1 µg/mL [4]: 92.2%; inhibition at 10 µg/mL [5]: 99.6%
O=C(Nc1nc(Cc2ccccc2)c(-c2ccccc2)s1)c1cc(Br)ccc1O [Compound No. 212]	95.0%	79.7%	–
O=C(Nc1cc(F)cc(F)c1)c1cc(Br)ccc1O [Compound No. 123]	96.8%	91.8%	–
COc1ccc(C)cc1NC(=O)c1cc(Cl)ccc1O [Compound No. 178]	89.7%	–	–
COc1ccc(OC)c(NC(=O)c2cc3ccccc3cc2O)c1 [Compound No. 183]	86.8%	–	–
CN(C)c1ccc(O)c(C(=O)Nc2cc(C(F)(F)F)cc(C(F)(F)F)c2)c1 [Compound No. 44]	67.5%	–	–
CC(=O)Oc1ccc(Cl)cc1C(=O)Nc1cc(C(F)(F)F)cc(C(F)(F)F)c1 [compound 5]	99.2%	96.5%	–
Cc1ccc(O)c(C(=O)Nc2cc(C(C)(C)C)cc(C(C)(C)C)c2)c1 [Compound No. 147]	91.0%	38.9%	–
O=C(Nc1cc(C(F)(F)F)cc(C(F)(F)F)c1)c1cccc(Cl)c1O [Compound No. 64]	94.1%	84.9%	–
CON=C(C)c1ccc(O)c(C(=O)Nc2cc(C(F)(F)F)cc(C(F)(F)F)c2)c1 [Compound No. 14]	98.3%	94.7%	–
O=C(Nc1cc(C(F)(F)F)cc(C(F)(F)F)c1)c1cccc(-c2ccccc2)c1O [Compound No. 249, N-[3,5-bis(trifluoromethyl)phenyl]-2-hydroxy-3-phenylbenzamide]	–	–	inhibition at 1 µg/mL [4]: 86.6%; inhibition at 10 µg/mL [5]: 90.7%
Cc1ccc(O)c(C(=O)Nc2cc(Cl)cc(Cl)c2)c1 [Compound No. 131]	88.7%	49.1%	–
CCOC(=O)c1sc(NC(=O)c2cc(Br)ccc2O)nc1-c1ccccc1 [Compound No. 216, 2-(5-bromo-2-hydroxybenzoyl)amino-4-phenylthiazole-5-carboxylic acid ethyl ester]	–	–	inhibition at 1 µg/mL [4]: 55.8%; inhibition at 10 µg/mL [5]: 82.8%
O=C(Nc1cc(C(F)(F)F)ccc1Cl)c1cc(Cl)cnc1O [Compound No. 119]	86.9%	85.4%	–
O=C(Nc1nc(-c2ccccc2)c(C(=O)c2ccccc2)s1)c1cc(Br)ccc1O [Compound No. 215, 5-Bromo-N-(5-benzoyl-4-phenylthiazol-2-yl)-2-hydroxybenzamide]	–	–	inhibition at 1 µg/mL [4]: 90.7%; inhibition at 10 µg/mL [5]: 97.3%
Cc1ccc(C(=O)Nc2cc(C(F)(F)F)cc(C(F)(F)F)c2)c(O)c1 [Compound No. 53]	94.5%	93.3%	–
O=C(Nc1cc(F)ccc1F)c1cc(Cl)ccc1O [Compound No. 179]	93.4%	92.5%	–
